In US20040248765A1, “Tumour targeting prodrugs activated by metallo matrixproteinases” (priority 2001, published 2004):
Where two headings read alike, the source gives them in different places. Where a SMILES comes first, the peptide text is derived from it. [ ]: non-standard residue; d: D form. The star is where a group is joined. NH(CH2)3NH(1-anthraquinonyl) = O=C1c2ccccc2C(=O)c2c(NCCCN*)cccc21

Experiments:
topo I = target: T1, topo I (Homo sapiens, UniProt P11387); assay: Inhibition of topo I-mediated relaxation of pBR322 DNA; assay type: biochemical; conditions: for LEVEL OF INHIBITION of topo I-mediated relaxation pBR322 DNA: tested between 1-100 μM
T1 sequence (P11387 1-765): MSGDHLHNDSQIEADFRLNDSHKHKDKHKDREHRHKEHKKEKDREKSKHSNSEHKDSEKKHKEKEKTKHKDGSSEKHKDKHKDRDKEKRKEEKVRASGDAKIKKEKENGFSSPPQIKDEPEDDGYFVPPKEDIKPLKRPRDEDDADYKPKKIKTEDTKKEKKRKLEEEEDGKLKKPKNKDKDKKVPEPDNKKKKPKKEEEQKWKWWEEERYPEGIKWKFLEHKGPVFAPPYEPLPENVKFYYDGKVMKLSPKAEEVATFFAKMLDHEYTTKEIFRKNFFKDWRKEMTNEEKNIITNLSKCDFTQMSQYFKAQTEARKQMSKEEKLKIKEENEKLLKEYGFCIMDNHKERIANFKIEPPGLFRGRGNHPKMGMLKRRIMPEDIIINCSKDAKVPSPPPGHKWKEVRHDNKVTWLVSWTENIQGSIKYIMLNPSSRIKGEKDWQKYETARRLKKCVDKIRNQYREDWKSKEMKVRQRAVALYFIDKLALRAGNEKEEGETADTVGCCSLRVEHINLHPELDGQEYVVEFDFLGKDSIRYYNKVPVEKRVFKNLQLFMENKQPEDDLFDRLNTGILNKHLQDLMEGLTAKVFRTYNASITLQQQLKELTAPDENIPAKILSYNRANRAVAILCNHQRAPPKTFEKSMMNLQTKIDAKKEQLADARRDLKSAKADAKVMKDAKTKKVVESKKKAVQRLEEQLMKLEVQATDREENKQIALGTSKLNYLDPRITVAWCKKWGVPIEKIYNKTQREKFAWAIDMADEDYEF
Method: Neither example (8) [NU:UB187] (heptapeptide) nor its hexa-, penta-, or tetra-peptide metabolites {examples (7) [NU:UB 205], (6) [NU:UB 204] and (5) [NU:UB 186] respectively} inhibited the topo I- mediated relaxation of pBR322 DNA at concentrations up to 100 μM. […] (the preferred MMP-2 cleavage product of example (8) [NU:UB187] The topo I activities of example (2) [NU:UB 31] and example (1b) [NU:UB 197] bad previously been determined [Table 1].

MAC15A = assay: In vitro cytotoxicity, MAC15A, 1 hour exposure; assay type: cell-based; conditions: for % cells remaining: 1 × 10^4 cells/ml
[1] = tested on: MAC15A adenocarcinoma of the colon; assay: In vitro cytotoxicity against MAC15A adenocarcinoma of the colon, 96 hours exposure; assay type: cell-based
calf thymus DNA [2] = assay: Fluorescence quenching, Ethidium Bromide displacement from calf thymus DNA; assay type: binding; conditions: calf thymus DNA
calf thymus DNA [3] = assay: Fluorescence quenching, Hoechst Dye 33258 displacement from calf thymus DNA; assay type: binding; conditions: calf thymus DNA
[4] = Stability in murine whole blood and mouse plasma; assay type: in vitro ADME
[5] = In vitro tumour incubations: metabolism by dilute HT1080 tumour homogenate (HPLC); assay type: in vitro ADME; conditions: dilute HT1080 tumour homogenate (1:500)
Method: Separation was achieved using gradient reversed phase HPLC On a Lichrospher (25×4 mm) column.
Mobile phase A consisted of 10% acetonitrile: 90% TFA (0.05%) and mobile phase B of 60% acetonitrile: 40% TFA (0.05%). Optimum detection was at the λmax of 248 nm using a flow rate of 1.2 ml/min. The gradient profile was from 60% A to 5% A over 25 min.
Sample preparation for HPLC was by simple protein precipitation. 3 vols. of methanol were added to 1 vol. of sample (typically 100 μl) which was centrifuged at 3000 g for 5 min. The supernatant was injected directly onto the HPLC column.
In Vitro Tumour Incubations
Solid tumour (HTT1080—excised from NCI-Nu mice under a Home Office Licence) was homogenised (1:4) in MMP buffer. Tumour homogenates were incubated at 25° C. and compounds (drugs) were added to the homogenate to give a final concentration of 10 μM or 100 μM. Samples were taken at timed intervals and prepared for HPLC analysis as described above.
Where metabolism was so rapid tumour homogenates required dilution (to 1:500) before analysis.

[6] = Mus musculus, exposure time 96 hours, read-out: IC50

| SMILES | LEVEL OF INHIBITION of topo I-mediated relaxation pBR322 DNA (topo I) | % cells remaining (MAC15A; 1 μM) [%] | % cells remaining (MAC15A; 10 μM) [%] | % cells remaining (MAC15A; 100 μM) [%] | melting point [°C] | also measured |
| --- | --- | --- | --- | --- | --- | --- |
| NCCCNc1cccc2c1C(=O)c1ccccc1C2=O.O=C(O)C(F)(F)F [Example 1b, 1-[(3-Aminopropyl)amino]anthraquinone trifluoroacetate] | Complete inhibition of relaxation at 25 μM | 90 | 100 | 5 | – | IC50 (MAC15A; Mus musculus): 33 µM |
| O=C(O)C(F)(F)F.O=C1c2ccccc2C(=O)c2c(NCCCNC(=O)[C@@H]3CCCN3)cccc21 [Example 2, 1-[3-(L-Propylamino)propylamino]anthraquinone trifluoroacetate] | Complete inhibition of relaxation at 25 μM | 100 | 30 | 0 | – | IC50 (MAC15A): 5 µM; IC50 ([1]; exposure time 96 hours, read-out: IC50): 4.3 µM; QE50 (Ethidium Bromide displacement) (calf thymus DNA [2]): 2 µM; QH50 (Hoechst Dye 33258 displacement) (calf thymus DNA [3]): 0.6 µM |
| CC(C)C[C@H](N)C(=O)N1CCC[C@H]1C(=O)NCCCNc1cccc2c1C(=O)c1ccccc1C2=O.O=C(O)C(F)(F)F [Example 3, 1-[3-(L-Leucyl-L-prolylamino)propylamino]anthraquinone trifluoroacetate] | Complete inhibition of relaxation at 5 μM | 80 | 58 | 1 | 126 | IC50 (MAC15A; Mus musculus): 14 µM; IC50 ([1]; Mus musculus, 96 h): 2 µM |
| CC(C)C[C@H](NC(=O)CN)C(=O)N1CCC[C@H]1C(=O)NCCCNc1cccc2c1C(=O)c1ccccc1C2=O.O=C(O)C(F)(F)F [Example 4, 1-[3-(Glycyl-L-leucyl-L-prolylamino)propylamino]anthraquinone trifluoroacetate] | Partial inhibition of relaxation at 50 μM | 91 | 55 | 0 | 144 to 148 | IC50 (MAC15A; Mus musculus): 13 µM |
| CC(C)C[C@H](NC(=O)CNC(=O)[C@@H](N)CC(C)C)C(=O)N1CCC[C@H]1C(=O)NCCCNc1cccc2c1C(=O)c1ccccc1C2=O.O=C(O)C(F)(F)F [Example 5, 1-[3-(L-Leucyl-glycyl-L-leucyl-L-prolylamino)propylamino]-anthraquinone trifluoroacetate] (H-LGLP-{NH(CH2)3NH(1-anthraquinonyl)}) | No inhibition of relaxation between 1-100 μM | 89 | 100 | 0 | 144 | IC50 (MAC15A; Mus musculus): 30 µM |
| CC(C)C[C@H](NC(=O)[C@H](C)N)C(=O)NCC(=O)N[C@@H](CC(C)C)C(=O)N1CCC[C@H]1C(=O)NCCCNc1cccc2c1C(=O)c1ccccc1C2=O.O=C(O)C(F)(F)F [Example 6, 1-[3-(L-Alanyl-L-leucyl-glycyl-L-leucyl-L-prolylamino)propylamino]-anthraquinone trifluoroacetate] | No inhibition of relaxation between 1-100 μM | – | – | – | 168 | – |
| CC(C)C[C@H](NC(=O)[C@H](C)NC(=O)[C@H](C)N)C(=O)NCC(=O)N[C@@H](CC(C)C)C(=O)N1CCC[C@H]1C(=O)NCCCNc1cccc2c1C(=O)c1ccccc1C2=O.O=C(O)C(F)(F)F [Example 7, 1-[3-(L-Alanyl-L-alanyl-L-leucyl-glycyl-L-leucyl-L-prolylamino)-propylamino]anthraquinone trifluoroacetate] | No inhibition of relaxation between 1-100 μM | – | – | – | 132 | – |
| NCC(=O)N[C@@H](Cc1ccccc1)C(=O)N1CCC[C@H]1C(=O)NCCCNc1cccc2c1C(=O)c1ccccc1C2=O.O=C(O)C(F)(F)F [Example 73, 1-[3-(Glycyl-L-phenylalanyl-L-prolylamino)propylamino]anthraquinone trifluoroacetate] | – | – | – | – | 129 | IC50 ([1]; Mus musculus, 96 h): 2.5 µM |
| CC[C@H](C)[C@H](N)C(=O)NCC(=O)N[C@@H](Cc1ccccc1)C(=O)N1CCC[C@H]1C(=O)NCCCNc1cccc2c1C(=O)c1ccccc1C2=O.O=C(O)C(F)(F)F [Example 74, 1-[3-(L-Isoleucyl-glycyl-L-phenylalanyl-L-prolylamino)propylamino]-anthraquinone trifluoroacetate] | – | – | – | – | 122 to 124 | IC50 [1, 6]: 2.5 µM |
| CC[C@H](C)[C@H](NC(=O)[C@@H](N)Cc1ccccc1)C(=O)NCC(=O)N[C@@H](Cc1ccccc1)C(=O)N1CCC[C@H]1C(=O)NCCCNc1cccc2c1C(=O)c1ccccc1C2=O.O=C(O)C(F)(F)F [Example 75, 1-[3-(L-Phenylalanyl-L-isoleucyl-glycyl-L-phenylalanyl-L-prolylamino)-propylamino]anthraquinone trifluoroacetate] | – | – | – | – | 132 to 136 | IC50 [1, 6]: 20 µM |
| CC[C@H](C)[C@H](NC(=O)[C@H](Cc1ccccc1)NC(=O)[C@@H](N)CC(C)C)C(=O)NCC(=O)N[C@@H](Cc1ccccc1)C(=O)N1CCC[C@H]1C(=O)NCCCNc1cccc2c1C(=O)c1ccccc1C2=O.O=C(O)C(F)(F)F [Example 76, 1-[3-(L-Leucyl-L-phenylalanyl-L-isoleucyl-glycyl-L-phenylalanyl-L-prolylamino)propylamino]anthraquinone trifluoroacetate] | – | – | – | – | 166 to 178 | IC50 [1, 6]: 21 µM |
| CC[C@H](C)[C@H](NC(=O)[C@H](Cc1ccccc1)NC(=O)[C@H](CC(C)C)NC(=O)[C@@H](C)N)C(=O)NCC(=O)N[C@@H](Cc1ccccc1)C(=O)N1CCC[C@H]1C(=O)NCCCNc1cccc2c1C(=O)c1ccccc1C2=O.O=C(O)C(F)(F)F [Example 77, 1-[3-(D-Alanyl-L-Leucyl-L-Phenylalanyl-L-isoleucyl-glycyl-L-phenylalanyl-L-prolylamino)propylamino]anthraquinone trifluoroacetate] | – | – | – | – | 142 to 148 | IC50 [1, 6]: 24 µM |
| CC(C)C[C@H](N)C(=O)N1CCC[C@H]1C(=O)NCCCNc1cccc2c1C(=O)c1ccccc1C2=O.O=C(O)C(F)(F)F [example (3)] | – | – | – | – | – | inhibition of topo I-mediated relaxation, in words (topo I): Greatest inhibitory activity |
| CC(C)C[C@H](NC(=O)CN)C(=O)N1CCC[C@H]1C(=O)NCCCNc1cccc2c1C(=O)c1ccccc1C2=O.O=C(O)C(F)(F)F [example (4)] | – | – | – | – | – | inhibition of topo I-mediated relaxation, in words (topo I): weakly inhibited relaxation at 50 μM |
| CC(C)C[C@H](NC(=O)[C@H](C)NC(=O)[C@H](C)NC(=O)[C@@H](C)N)C(=O)NCC(=O)N[C@@H](CC(C)C)C(=O)N1CCC[C@H]1C(=O)NCCCNc1cccc2c1C(=O)c1ccccc1C2=O.O=C(O)C(F)(F)F [example (8)] (H-[dA]AALGLP-{NH(CH2)3NH(1-anthraquinonyl)}) | – | – | – | – | – | t½ ([4]; mouse plasma at 37° C.): > 13 h; half-life ([4]; murine whole blood): 1.46 h |
| CC(C)C[C@H](NC(=O)[C@H](C)NC(=O)[C@H](C)NC(=O)[C@@H](C)N)C(=O)NCC(=O)N[C@@H](CC(C)C)C(=O)N1CCC[C@@H]1C(=O)NCCCNc1cccc2c1C(=O)c1ccccc1C2=O.O=C(O)C(F)(F)F [example (15)] (H-[dA]AALGL[dP]-{NH(CH2)3NH(1-anthraquinonyl)}) | – | – | – | – | – | major products / metabolite [5]: the expected cleavage product example (11) [NU:UB 224]; rate of metabolism [5]: 2.5 μmol/min/g tissue |
